For 23 molecules, EC50 and IC50 results are on record in patent publication US8293909B2, “Compounds for the treatment of hepatitis C” (Bristol-Myers Squibb Company, priority 2008, dated 2012).

The subject of one assay is HCV replicon cells. Description: HCV replicon assay (FRET or luciferase readout). It is filed as cell-based. The note with it: Hepatitis C virus. The source says:
FRET Assay Preparation. To perform the HCV FRET screening assay, 96-well cell culture plates were used. The FRET peptide (Anaspec, Inc.) (Taliani et al., Anal. Biochem. 1996, 240, 60-67) contains a fluorescence donor, EDANS, near one end of the peptide and an acceptor, DABCYL, near the other end. The fluorescence of the peptide is quenched by […] resonance energy transfer (RET) between the donor and the acceptor, but as the NS3 protease cleaves the peptide the products are released from RET quenching and the fluorescence of the donor becomes apparent. The assay reagent was made as follows: 5× cell Luciferase cell culture lysis reagent from Promega (#E153A) diluted to 1× with dH2O, NaCl added to 150 mM final, the FRET peptide diluted to 20 μM final from a 2 mM stock.
To prepare plates, HCV replicon cells, with or without a Renilla luciferase reporter gene, were trypsinized and placed into each well of a 96-well plate with titrated test compounds added in columns 3 through 12; columns 1 and 2 contained a control compound (HCV protease inhibitor), and the bottom row contained cells without compound. The plates were then placed in a CO2 incubator at 37° C.
Assays. Subsequent to addition of the test compounds described above (FRET Assay Preparation), at various times the plate was removed and Alamar blue solution (Trek Diagnostics, #00-100) was added per well as a measure of cellular toxicity. After reading in a Cytoflour 4000 instrument (PE Biosystems), plates were rinsed with PBS and then used for FRET assay by the addition of 30 ul of the FRET peptide assay reagent described above (FRET Assay Preparation) per well. The plate was then placed into the Cytoflour 4000 instrument which had been set to 340 excite/490 emission, automatic mode for 20 cycles and the plate read in a kinetic mode. Typically, the signal to noise using an endpoint analysis after the reads was at least three-fold. Alternatively, after Alamar blue reading, plates were rinsed with PBS, 50 ul of DMEM (high glucose) without phenol red was added and plates were then used for luciferase assay using the Promega Dual-Glo Luciferase Assay System.
Compound analysis was determined by quantification of the relative HCV replicon inhibition and the relative cytotoxicity values. To calculate cytoxicity values, the average Alamar Blue fluorescence signals from the control wells were set as 100% non-toxic. The individual signals in each of the compound test wells were then divided by the average control signal and multiplied by 100% to determine […]. To calculate the HCV replicon inhibition values, an average background value was obtained from the two wells containing the highest amount of HCV protease inhibitor at the end of the assay period. These numbers were similar to those obtained from naïve Huh-7 cells.
The background numbers were then subtracted from the average signal obtained from the control wells and this number was used as 100% activity. The individual signals in each of the compound test wells were then divided by the averaged control values after background subtraction and multiplied by 100% to determine percent activity. EC50 values for a protease inhibitor titration were calculated as the concentration which caused a 50% reduction in FRET or luciferase activity. The two numbers generated for the compound plate, percent cytoxicity and percent activity were used to determine compounds of interest for further analysis.
Background: Replicon systems follow genome replication, usually without infectious particles.

Assay [1] addresses T1, HCV NS5B RdRp genotype 1b (Hepatitis C virus genotype 1b, UniProt Q9WMX2).
T1 construct: The protein was expressed with an 18 amino acid C-terminal truncation to enhance the solubility; made in house; host or cells: E. coli BL21(DE3), pET21a vector
The assay is described as follows: HCV NS5B RdRp enzyme assay (standard / modified). The format is biochemical. The note with it: HCV NS5B genotype 1b. As to the method: HCV NS5B RdRp cloning, expression, and purification. The cDNA encoding the NS5B protein of HCV, genotype 1b, was cloned into the pET21a expression vector. The protein was expressed with an 18 amino acid C-terminal truncation to enhance the solubility. The E. coli competent cell line BL21(DE3) was used for expression of the protein. Cultures were grown at 37° C. for ˜4 hours until the cultures reached an optical density of 2.0 at 600 nm. The cultures were cooled to 20° C. and induced with 1 mM IPTG. Fresh ampicillin was added to a final concentration of 50 μg/ml and the cells were grown overnight at 20° C.
Cell pellets (3 L) were lysed for purification to yield 15-24 mgs of purified NS5B. The lysis buffer consisted of 20 mM Tris-HCl, pH 7.4, 500 mM NaCl, 0.5% triton X-100, 1 mM DTT, 1 mM EDTA, 20% glycerol, 0.5 mg/ml lysozyme, 10 mM MgCl2, 15 ug/ml deoxyribonuclease I, and Complete™ protease inhibitor tablets (Roche). After addition of the lysis buffer, frozen cell pellets were resuspended using a tissue homogenizer. To reduce the viscosity of the sample, aliquots of the lysate were sonicated on ice using a microtip attached to a Branson sonicator. The sonicated lysate was centrifuged at 100,000×g for 1 hr at 4° C. and filtered through a 0.2 μm filter unit (Corning).
The protein was purified using three sequential chromatography steps: Heparin sepharose CL-6B, polyU sepharose 4B, and Hitrap SP sepharose (Pharmacia). The chromatography buffers were identical to the lysis buffer but contained no lysozyme, deoxyribonuclease I, MgCl2 or protease inhibitor and the NaCl concentration of the buffer was adjusted according to the requirements for charging the protein onto the column. Each column was eluted with a NaCl gradient which varied in length from 5-50 column volumes depending on the column type. After the final chromatography step, the resulting purity of the enzyme is >90% based on SDS-PAGE analysis. The enzyme was aliquoted and stored at −80° C.
Standard HCV NS5B RdRp enzyme assay. HCV RdRp genotype 1b assays were run in a final volume of 60 μl in 96 well plates (Costar 3912). The assay buffer is composed of 20 mM Hepes, pH 7.5, 2.5 mM KCl, 2.5 mM MgCl2, 1 mM DTT, 1.6 U RNAse inhibitor (Promega N2515), 0.1 mg/ml BSA (Promega R3961), and 2% glycerol. All compounds were serially diluted (3-fold) in DMSO and diluted further in water such that the final concentration of DMSO in the assay was 2%. HCV RdRp genotype 1b enzyme was used at a final concentration of 28 nM. A polyA template was used at 6 nM, and a biotinylated oligo-dT12 primer was used at 180 nM final concentration. Template was obtained commercially (Amersham 27-4110). Biotinylated primer was prepared by Sigma Genosys. 3H-UTP was used at 0.6 μCi (0.29 μM total UTP). Reactions were initiated by the addition of enzyme, incubated at 30° C. for 60 min, and stopped by adding 25 μl of 50 mM EDTA containing SPA beads (4 μg/μl, Amersham RPNQ 0007). Plates were read on a Packard Top Count NXT after >1 hr incubation at room temperature.
Modified HCV NS5B RdRp enzyme assay. A modified enzyme assay was performed essentially as described for the standard enzyme assay except for the following: The biotinylated oligo dT12 primer was precaptured on streptavidin-coated SPA beads by mixing primer and beads in assay buffer and incubating at room temperature for one hour. Unbound primer was removed after centrifugation. The primer-bound beads were resuspended in 20 mM Hepes buffer, pH 7.5 and used in the assay at final concentrations of 20 nM primer and 0.67 μg/μl beads. Order of addition in the assay: enzyme (14 nM) was added to diluted compound followed by the addition of a mixture of template (0.2 nM), 3H-UTP (0.6 μCi, 0.29 μM), and primer-bound beads, to initiate the reaction; concentrations given are final. Reactions were allowed to proceed for 4 hours at 30° C.
IC50 values for compounds were determined using seven different [I]. […]

T1 sequence (Q9WMX2 2420-2992): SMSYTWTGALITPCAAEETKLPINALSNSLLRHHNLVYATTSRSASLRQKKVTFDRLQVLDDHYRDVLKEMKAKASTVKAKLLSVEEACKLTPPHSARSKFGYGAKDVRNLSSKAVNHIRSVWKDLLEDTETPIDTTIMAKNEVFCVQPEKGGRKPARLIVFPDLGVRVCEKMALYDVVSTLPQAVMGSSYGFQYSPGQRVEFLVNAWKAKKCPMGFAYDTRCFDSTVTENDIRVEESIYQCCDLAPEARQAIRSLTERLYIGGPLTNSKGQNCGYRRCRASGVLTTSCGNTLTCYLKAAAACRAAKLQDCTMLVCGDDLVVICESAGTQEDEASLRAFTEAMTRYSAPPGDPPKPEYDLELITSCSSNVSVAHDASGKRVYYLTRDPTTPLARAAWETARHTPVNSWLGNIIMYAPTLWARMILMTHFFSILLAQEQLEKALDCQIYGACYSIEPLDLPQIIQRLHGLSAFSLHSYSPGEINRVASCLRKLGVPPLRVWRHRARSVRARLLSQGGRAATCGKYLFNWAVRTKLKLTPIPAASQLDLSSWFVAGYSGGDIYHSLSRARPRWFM

Take `CNC(=O)c1c(-c2ccc(F)cc2)nc2cc(C)c(-c3cc(C(=O)NC(C)(C)c4ccccc4)ccc3C)cn12`: the EC50 in the assay with HCV replicon cells (Table 1) lay within 2 to 250 nM. The IC50 in assay [1] (Table 1) was 2 to 250 nM.

For the molecule `CNC(=O)c1c(-c2ccc(F)cc2)oc2cnc(-c3cc(C(=O)NC4(c5ccccn5)CC4)ccc3C)cc12`, the EC50 in the assay with HCV replicon cells (Table 1) was in the range of 2 to 250 nM. This molecule displayed an IC50 in assay [1] (Table 1) of 2 to 250 nM.

Regarding `CNC(=O)c1c2cc(-c3cccc(C(=O)NC(C)(C)c4ccccc4)c3)ccc2nn1-c1ccc(F)cc1`, the EC50 with HCV replicon cells (Table 1) is 250 to 1000 nM. The same molecule yielded an IC50 in assay [1] (Table 1) of 2 to 250 nM.

Turning to `CNC(=O)c1c(-c2ccc(F)cc2)nn2ccc(NC(=O)c3ccc(OC)cc3)cc12`, in the assay with HCV replicon cells (Table 1), the half-maximal effective concentration (EC50) is greater than 10000 nM. Moreover, the IC50 in assay [1] (Table 1) is greater than 10000 nM.

As for `CCN(c1cn2nc(-c3ccc(F)cc3)c(C(=O)NC)c2cc1-c1cccc(C(=O)NC2(c3ccccn3)CC2)c1)S(C)(=O)=O`, in the assay on HCV replicon cells (Table 1), the EC50 lay in the range of 2 to 250 nM. The IC50 in assay [1] (Table 1) fell in the range of 2 to 250 nM.

For the molecule `CNC(=O)c1c(-c2ccc(F)cc2)nn2cc(N(CCO)S(C)(=O)=O)c(-c3cccc(C(=O)NC4(c5ccccn5)CC4)c3)cc12` [drawing 182], the EC50 with HCV replicon cells (Table 2) was determined as 1560 nM. The molecule further showed an IC50 in assay [1] (Table 2) of 60 nM.

In the assay with HCV replicon cells (Table 2), `CNC(=O)c1c(-c2ccc(F)cc2)sc2ccc(-c3cccc(C(=O)NC(C)(C)C)c3)cc12` [drawing 183] displayed an EC50 of 1860 nM. The IC50 in assay [1] (Table 2) is greater than 4170 nM.

In the case of `CNC(=O)c1c(-c2ccc(F)cc2)nn2ccc(-c3cc(C(=O)NC4(c5ccccc5)CC4)c(OC)cc3C)c(F)c12` [drawing 174], the response with HCV replicon cells (Table 2) was half-maximal at 3.92 nM (EC50). In assay [1] (Table 2), this molecule displayed an IC50 of 10 nM.

As for `CNC(=O)c1c(-c2ccc(F)cc2)nn2ccc(NC(=O)OC(C)(C)C)cc12`, the concentration giving a half-maximal response (EC50) with HCV replicon cells (Table 1) was greater than 10000 nM. Besides, the IC50 in assay [1] (Table 1) is greater than 10000 nM.

Turning to `CNC(=O)c1c(-c2ccc(F)cc2)nc2ccc(-c3cccc(C(=O)O)c3)cn12`, the EC50 with HCV replicon cells (Table 1) was greater than 10000 nM. In addition, in assay [1] (Table 1), the IC50 was greater than 10000 nM.

Consider `CNC(=O)c1c(-c2ccc(F)cc2)nn2ccc(NCc3ccccc3)cc12`, for which the EC50 in the assay on HCV replicon cells (Table 1) is greater than 10000 nM. Besides, the IC50 in assay [1] (Table 1) was greater than 10000 nM.

In the assay on HCV replicon cells (Table 1), `CCN(c1cn2nc(-c3ccc(F)cc3)c(C(=O)NC)c2cc1C1CCCC1)S(C)(=O)=O` returned an EC50 of 1000 to 10000 nM. Besides, the IC50 in assay [1] (Table 1) fell in the range of 250 to 1000 nM.

Take `CNC(=O)c1c(-c2ccc(F)cc2)nn2ccc(-c3cc(C(=O)NC4(c5ccccc5)CC4)ccc3C)c(F)c12` [drawing 127]: in the assay with HCV replicon cells (Table 1), the EC50 lay within 2 to 250 nM. In assay [1] (Table 1), this molecule gave an IC50 of 2 to 250 nM.

In the case of `CNC(=O)c1c(-c2ccccc2)nn2cc(I)ccc12`, the EC50 in the assay on HCV replicon cells (Table 1) was greater than 10000 nM. The half-maximal inhibitory concentration (IC50) in assay [1] (Table 1) was greater than 10000 nM.

Molecule `CC(C)(NC(=O)c1cccc(-c2ccn3nc(-c4ccccc4)c(C(=O)O)c3c2)c1)c1ccccc1` came in with an EC50 in the assay with HCV replicon cells (Table 1) greater than 10000 nM. The half-inhibitory concentration (IC50) in assay [1] (Table 1) is greater than 10000 nM.

`CNC(=O)c1c(-c2ccc(F)cc2)nc2ccc(-c3cc(C(=O)NC(C)(C)c4ccccc4)ccc3OC)cn12` returned an EC50 in the assay on HCV replicon cells (Table 1) of 2 to 250 nM. The molecule further displayed an IC50 in assay [1] (Table 1) of 2 to 250 nM.

`CCN(c1cn2nc(-c3ccc(F)cc3)c(C(=O)NC)c2cc1-c1ccccc1)S(C)(=O)=O`: in the assay with HCV replicon cells (Table 1), the EC50 lay within 250 to 1000 nM. This molecule yielded an IC50 in assay [1] (Table 1) of 2 to 250 nM.

In the assay with HCV replicon cells (Table 1), `CNC(=O)c1c(-c2ccc(F)cc2)nn2cc(N(CCO)S(C)(=O)=O)c(OC)cc12` [drawing 50] returned an EC50 of 1000 to 10000 nM. The same molecule yielded an IC50 in assay [1] (Table 1) of 1000 to 10000 nM.

In turn, `CNC(=O)c1c(-c2ccc(F)cc2)nn2ccc(OC)cc12` registered a 50% effective concentration (EC50) in the assay with HCV replicon cells (Table 1) greater than 10000 nM. The same molecule came in with an IC50 in assay [1] (Table 1) greater than 10000 nM.

With `COC(=O)c1c(-c2ccccc2)nn2ccc(-c3cccc(C(=O)NC(C)(C)c4ccccc4)c3)cc12`, the EC50 in the assay on HCV replicon cells (Table 1) was greater than 10000 nM. Moreover, the IC50 in assay [1] (Table 1) is greater than 10000 nM.

In the assay on HCV replicon cells (Table 1), `CNC(=O)c1c(-c2ccc(F)cc2)[nH]c2ccc(-c3cccc(C(=O)NC(C)(C)c4ccccc4)c3)cc12` [drawing 80] showed an EC50 of 250 to 1000 nM. In assay [1] (Table 1), this molecule returned an IC50 of 250 to 1000 nM.

In the case of `CCN(c1cn2nc(-c3ccc(F)cc3)c(C(=O)NC)c2cc1C1CCCCC1)S(C)(=O)=O`, the EC50 with HCV replicon cells (Table 1) lay in the range of 1000 to 10000 nM. This molecule showed an IC50 in assay [1] (Table 1) of 1000 to 10000 nM.

In the assay with HCV replicon cells (Table 2), `CNC(=O)c1c(-c2ccc(F)cc2)nn2cc(N(CCO)S(C)(=O)=O)c(OC)cc12` [drawing 184] returned an EC50 of 3990 nM. The molecule further returned an IC50 in assay [1] (Table 2) of 2920 nM.

One may read the EC50 as the concentration at which the effect is half-maximal. As a reminder, the IC50 is the concentration needed to halve the response being measured.
